For orientation: Km means the concentration of substrate that gives half-maximal velocity.

From publication PMC4165461 (Analytical Chemistry, 2014) come the findings set out here.

Series [1] has as its target cathepsin B (Homo sapiens, UniProt P07858). The experiment in a line: Cathepsin B assay by droplet ESI-MS. The settings on record: for result in the 24-compound pilot screen: 25 μM each; for inhibition at 25 µM: read-out: reduction of reaction yield in the primary screen.
For series [2], the system named is CC(C)[C@H](NC(=O)[C@H](Cc1ccccc1)NC(=O)CNC(=O)[C@H](Cc1ccccc1)NC(=O)CN)C(=O)NCC(=O)NCC(=O)O. The series is described as follows: purified protein, by the assay type. The settings on record: other: substrate 0 to 400 μM, 50 nM cathepsin B; 37.0 °C.

*1 amine or outer side, *2 acyl side, *3 side chain or, on linkers, in order; H or OH if unused. Where a SMILES comes first, the peptide text is derived from it. CO = O=C([*:1])[*:2]

With `CC(C)C[C@H](NC(=O)[C@H]1O[C@@H]1C(=O)O)C(=O)NCCCCN=C(N)N` (relative stereo) [E-64, L-trans-3-carboxyoxiran-2-carbonyl-L-leucylagmatine], in series [1], the “result in the 24-compound pilot screen” value is given as “detected as inhibitors”.

On to `[H]/N=C(\N/C(=N/[H])NCCCCCCNC(=N)NC(=N)Nc1ccc(Cl)cc1)Nc1ccc(Cl)cc1` [Chlorhexidine, chlorhexidine], for which, in series [1], the inhibition at 25 µM is at least 40%.

`O=c1cc(-c2ccc(O)c(O)c2)oc2cc(O)cc(O)c12` [Luteolin, luteolin]: the inhibition at 25 µM in series [1] is at least 40%.

Regarding `CSc1nc2cc(Cl)c(Oc3cccc(Cl)c3Cl)cc2[nH]1` [Triclabendazole, triclabendazole], in series [1], the inhibition at 25 µM is at least 40%.

`O=C1c2c(O)cccc2Cc2cccc(O)c21` [anthralin]: the inhibition at 25 µM in series [1] was at least 40%.

For the molecule `CC(C)[C@H](NC(=O)[C@H](CCCNC(=N)N)NC(=O)N[C@@H](Cc1ccccc1)C(=O)O)C(=O)N[C@H](C=O)CCCNC(=N)N` [antipain, [(S)-1-carboxy-2-phenylethyl]carbamoyl-L-arginyl-L-valyl-argininal] ({Phe-CO}-Arg-Val-Arg-aldehyde), in series [1], the “result in the 24-compound pilot screen” value is recorded as “detected as inhibitors”.

For the molecule `CC(C)C[C@H](NC(=O)[C@@H](NC(=O)N[C@@H](Cc1ccccc1)C(=O)O)[C@@H]1CCN=C(N)N1)C(=O)N[C@H](C=O)Cc1ccccc1` [chymostatin, N-(Nα-carbonyl-[S,S]-α-(2-iminohexahydro-4-pyrimidyl)glycine-X-Phe-al)-Phe, X = Leu, Val, or Ile], in series [1], the “result in the 24-compound pilot screen” value is given as “detected as inhibitors”.

For the molecule `CC(=O)Oc1cccc2c1C(=O)c1c(OC(C)=O)cc(C(=O)O)cc1C2=O` [diacerein], the inhibition at 25 µM in series [1] is at least 40%.

For the molecule `CCN(CC)C(=S)SSC(=S)N(CC)CC` [disulfiram], the inhibition at 25 µM in series [1] was at least 40%.

Regarding `C=C(CC)C(=O)c1ccc(OCC(=O)O)c(Cl)c1Cl` [ethacrynic acid], in series [1], the inhibition at 25 µM is at least 40%.

As to `Oc1c(Cl)cc(Cl)c(Cl)c1Cc1c(O)c(Cl)cc(Cl)c1Cl` [hexachlorophene], the inhibition at 25 µM in series [1] was at least 40%.

In the case of `CC(=O)N[C@@H](CC(C)C)C(=O)N[C@@H](CC(C)C)C(=O)N[C@H](C=O)CCCNC(=N)N` [leupeptin, N-acetyl-L-leucyl-L-leucyl-L-argininal], the “result in the 24-compound pilot screen” value in series [1] is listed as “detected as inhibitors”.

On to `O=C(c1ccc(OCCN2CCCCC2)cc1)c1c(-c2ccc(O)cc2)sc2cc(O)ccc12` [raloxifene], for which, in series [1], the inhibition at 25 µM is at least 40%.

For `Oc1cc(Cl)ccc1Oc1ccc(Cl)cc1Cl` [triclosan], in series [1], the inhibition at 25 µM was at least 40%.

Consider cathepsin B (Homo sapiens), for which the Km in series [2] came out at 270 ± 34 µM.
